Experimental data reported in patent US10059701B2 (Merck Patent GmbH, priority 2015, dated 2018).

What was measured:
IRAK1 = target: T1, IRAK1 (Homo sapiens, UniProt P51617); assay: IRAK1 enzymatic assay (ADP-Glo luminescence); assay type: biochemical; conditions: purified human recombinant His-TEV-IRAK1 (194-712)
T1 construct: His-TEV-IRAK1 (194-712); His (N); TEV cleavage site (N)
Procedure: IRAK1 is a human purified recombinant enzyme (His-TEV-IRAK1 (194-712))
In this assay, IRAK1 hydrolyses ATP and autophosphorylates. Measurement of IRAK-1 inhibition is performed in 384-well format based on luminescence assay (ADP-Glo™ Kinase Assay from Promega). Purified human recombinant IRAK1 (0.3 μg/ml) and serial diluted compounds in DMSO (range of concentration from 10 μM to 0.5 nM) or controls (1% DMSO) are incubated for 15 minutes at RT in assay buffer containing 50 mM Hepes pH 7.0, Fatty acid-free BSA 0.1%, Dithiothreitol (DTT) 2 mM, MgCl2 10 mM, EGTA 0.5 mM, Triton X-100 0.01%. The kinase reaction is then initiated by the addition of ATP […] After 2 hours of incubation at RT, the reaction is stopped and the unconsumed ATP depleted by the addition of ADP-Glo™ Reagent according to supplier instructions. After 40 minutes of incubation at RT, the Kinase Detection Reagent is then added to the assay plate according to supplier instructions. After 20 minutes of incubation at RT, the luminescence signal is measured with a luminometer (PerkinElmer Envision or equivalent reader).

IRAK4 = target: T2, IRAK4 (Homo sapiens, UniProt Q9NWZ3); assay: IRAK4 enzymatic assay (ADP-Glo luminescence); assay type: biochemical; conditions: purified human recombinant His-TEV-IRAK4 (1-460), ATP 2 μM
T2 construct: His-TEV-IRAK4 (1-460); His (N); TEV cleavage site (N)
T2 sequence (Q9NWZ3 1-460): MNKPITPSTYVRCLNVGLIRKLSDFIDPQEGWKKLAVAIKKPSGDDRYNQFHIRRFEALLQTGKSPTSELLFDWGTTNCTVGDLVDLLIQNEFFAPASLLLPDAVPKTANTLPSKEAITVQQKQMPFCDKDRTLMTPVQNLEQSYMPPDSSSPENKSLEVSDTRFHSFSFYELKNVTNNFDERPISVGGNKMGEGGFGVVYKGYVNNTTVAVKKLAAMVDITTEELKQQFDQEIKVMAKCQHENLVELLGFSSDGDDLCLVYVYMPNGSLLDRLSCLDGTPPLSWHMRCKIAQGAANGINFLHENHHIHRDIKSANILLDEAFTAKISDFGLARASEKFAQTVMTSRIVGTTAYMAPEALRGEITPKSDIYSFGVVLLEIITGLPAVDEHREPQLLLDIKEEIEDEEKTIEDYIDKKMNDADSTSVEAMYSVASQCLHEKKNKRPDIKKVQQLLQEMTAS
Procedure: IRAK4 is a human purified recombinant enzyme (His-TEV-IRAK4 (1-460)).
In this assay, IRAK4 hydrolyses ATP, autophosphorylates and phosphorylates a Serine/Threonine generic peptidic substrate (STK: 61ST1BLC from CisBio International). Measurement of IRAK-4 inhibition is performed in 384-well format based on a luminescence assay (ADP-Glo™ Kinase Assay from Promega). Purified human recombinant IRAK4 (0.3 μg/ml) and serial diluted compounds in DMSO (range of concentration from 10 μM to 0.5 nM) or controls (1% DMSO) are incubated for 15 minutes at RT in assay buffer containing 50 mM Hepes pH 7.0, Fatty acid-free BSA 0.1%, Dithiothreitol (DTT) 2 mM, MgCl2 10 mM, EGTA 0.5 mM, Triton X-100 0.01%, MnCl2 5 mM. The kinase reaction is then initiated by the addition of ATP (2 μM) and the peptidic substrate STK1-biotin peptide (300 nM). After 2 hours of incubation at RT, the reaction is stopped and the unconsumed ATP depleted by the addition of ADP-Glo™ Reagent according to supplier instructions. After 40 minutes of incubation at RT, the Kinase Detection Reagent is then added to the assay plate according to supplier instructions. After 20 minutes of incubation at RT, the luminescence signal is measured with a plate-reading luminometer (PerkinElmer Envision or equivalent reader).

T1 sequence (P51617 194-712): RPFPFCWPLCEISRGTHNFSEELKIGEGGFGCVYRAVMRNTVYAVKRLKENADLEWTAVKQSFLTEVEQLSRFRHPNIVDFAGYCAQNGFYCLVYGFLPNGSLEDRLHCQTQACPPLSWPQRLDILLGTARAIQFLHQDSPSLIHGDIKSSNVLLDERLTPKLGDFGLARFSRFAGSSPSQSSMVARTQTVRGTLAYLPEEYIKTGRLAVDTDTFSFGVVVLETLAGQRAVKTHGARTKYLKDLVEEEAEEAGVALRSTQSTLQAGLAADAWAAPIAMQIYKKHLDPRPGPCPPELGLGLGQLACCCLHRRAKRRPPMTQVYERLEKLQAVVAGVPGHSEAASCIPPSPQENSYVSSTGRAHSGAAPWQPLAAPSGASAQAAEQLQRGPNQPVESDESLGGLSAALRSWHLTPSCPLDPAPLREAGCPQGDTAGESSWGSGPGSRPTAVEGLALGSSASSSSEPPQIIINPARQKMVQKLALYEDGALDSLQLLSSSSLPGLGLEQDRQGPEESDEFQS

IC50 (IRAK1) | IC50 (IRAK4) | Compound
100 to 1000 nM | ≤ 100 nM | O=C(/N=c1\[nH]c2cc(N3CCOCC3=O)ccc2n1CCCO)c1cccc(Br)c1 [Compound 37, (E)-3-bromo-N-(1-(3-hydroxypropyl)-5-(3-oxomorpholino)-1H-benzo[d]imidazol-2(3H)-ylidene)benzamide]
> 1000 nM | > 1000 nM | COc1ccc(C(=O)/N=c2\[nH]c3cc(N4CCOCC4=O)ccc3n2CCCO)cc1C#N [Compound 38, (E)-3-cyano-N-(1-(3-hydroxypropyl)-5-(3-oxomorpholino)-1H-benzo[d]imidazol-2(3H)-ylidene)-4-methoxybenzamide]
> 1000 nM | > 1000 nM | O=C(/N=c1\[nH]c2cc(N3CCOCC3=O)ccc2n1C1(CO)CCCCC1)c1cccc(C(F)(F)F)c1 [Compound 39, (E)-N-(1-(1-(hydroxymethyl)cyclohexyl)-5-(3-oxomorpholino)-1H-benzo[d]imidazol-2(3H)-ylidene)-3-(trifluoromethyl)benzamide]
≤ 100 nM | ≤ 100 nM | COc1cc2c(cc1N1CCOCC1=O)[nH]/c(=N\C(=O)c1cccc(C(F)F)c1)n2[C@H](C)CCO [Compound 40, (R,E)-3-(difluoromethyl)-N-(1-(4-hydroxybutan-2-yl)-6-methoxy-5-(3-oxomorpholino)-1H-benzo[d]imidazol-2(3H)-ylidene)benzamide]
100 to 1000 nM | ≤ 100 nM | C[C@H](CCO)n1/c(=N/C(=O)c2cccc(C#N)c2)[nH]c2cc(N3CCCOC3=O)ccc21 [Compound 42, (R,E)-3-cyano-N-(1-(4-hydroxybutan-2-yl)-5-(2-oxo-1,3-oxazinan-3-yl)-1H-benzo[d]imidazol-2(3H)-ylidene)benzamide]
100 to 1000 nM | ≤ 100 nM | C[C@H](CCO)n1/c(=N/C(=O)c2cccc(C(F)(F)F)c2)[nH]c2cc(N3CCCOC3=O)ccc21 [Compound 43, (R,E)-N-(1-(4-hydroxybutan-2-yl)-5-(2-oxo-1,3-oxazinan-3-yl)-1H-benzo[d]imidazol-2(3H)-ylidene)-3-(trifluoromethyl)benzamide]
100 to 1000 nM | ≤ 100 nM | C[C@H](CCO)n1/c(=N/C(=O)c2cccc(C(F)F)c2)[nH]c2cc(N3CCCOC3=O)ccc21 [Compound 44, (R,E)-3-(difluoromethyl)-N-(1-(4-hydroxybutan-2-yl)-5-(2-oxo-1,3-oxazinan-3-yl)-1H-benzo[d]imidazol-2(3H)-ylidene)benzamide]
> 1000 nM | 100 to 1000 nM | O=C(/N=c1\[nH]c2cc(N3CCOCC3=O)ccc2n1C1CCCCC1)c1cccc(C(F)(F)F)c1 [Compound 45, (E)-N-(1-cyclohexyl-5-(3-oxomorpholino)-1H-benzo[d]imidazol-2(3H)-ylidene)-3-(trifluoromethyl)benzamide]
100 to 1000 nM | ≤ 100 nM | O=C(/N=c1\[nH]c2cc(N3CCCNC3=O)ccc2n1CCCO)c1cccc(C(F)F)c1 [Compound 46, (E)-3-(difluoromethyl)-N-(1-(3-hydroxypropyl)-5-(2-oxotetrahydropyrimidin-1(2H)-yl)-1H-benzo[d]imidazol-2(3H)-ylidene)benzamide]
100 to 1000 nM | 100 to 1000 nM | CC(=O)NCc1cccc(C(=O)/N=c2\[nH]c3cc(N4CCOCC4=O)ccc3n2CCCO)c1 [Compound 47, (E)-3-(acetamidomethyl)-N-(1-(3-hydroxypropyl)-5-(3-oxomorpholino)-1H-benzo[d]imidazol-2(3H)-ylidene)benzamide]
100 to 1000 nM | ≤ 100 nM | N#Cc1cccc(C(=O)/N=c2\[nH]c3cc(N4CCOCC4=O)c(Br)cc3n2CCCO)c1 [Compound 48, (E)-N-(6-bromo-1-(3-hydroxypropyl)-5-(3-oxomorpholino)-1H-benzo[d]imidazol-2(3H)-ylidene)-3-cyanobenzamide]
100 to 1000 nM | ≤ 100 nM | O=C(/N=c1\[nH]c2cc(N3CCOCC3=O)c(Br)cc2n1CCCO)c1cccc(C(F)F)c1 [Compound 49, (E)-N-(6-bromo-1-(3-hydroxypropyl)-5-(3-oxomorpholino)-1H-benzo[d]imidazol-2(3H)-ylidene)-3-(difluoromethyl)benzamide]
100 to 1000 nM | ≤ 100 nM | O=C(/N=c1\[nH]c2cc(N3CCOCC3=O)c(Br)cc2n1CCCO)c1cccc(C(F)(F)F)c1 [Compound 50, (E)-N-(6-bromo-1-(3-hydroxypropyl)-5-(3-oxomorpholino)-1H-benzo[d]imidazol-2(3H)-ylidene)-3-(trifluoromethyl)benzamide]
100 to 1000 nM | ≤ 100 nM | COc1cc2c(cc1N1CCOCC1=O)[nH]/c(=N\C(=O)c1cccc(C#N)c1)n2CC1(CO)CC1 [Compound 51, (E)-3-cyano-N-(1-((1-(hydroxymethyl)cyclopropyl)methyl)-6-methoxy-5-(3-oxomorpholino)-1H-benzo[d]imidazol-2(3H)-ylidene)benzamide]
≤ 100 nM | ≤ 100 nM | COc1cc2c(cc1N1CCOCC1=O)[nH]/c(=N\C(=O)c1cccc(C(F)F)c1)n2CC1(CO)CC1 [Compound 52, (E)-3-(difluoromethyl)-N-(1-((1-(hydroxymethyl)cyclopropyl)methyl)-6-methoxy-5-(3-oxomorpholino)-1H-benzo[d]imidazol-2(3H)-ylidene)benzamide]
≤ 100 nM | ≤ 100 nM | COc1cc2c(cc1N1CCOCC1=O)[nH]/c(=N\C(=O)c1cccc(C(F)(F)F)c1)n2CC1(CO)CC1 [Compound 53, (E)-N-(1-((1-(hydroxymethyl)cyclopropyl)methyl)-6-methoxy-5-(3-oxomorpholino)-1H-benzo[d]imidazol-2(3H)-ylidene)-3-(trifluoromethyl)benzamide]
≤ 100 nM | ≤ 100 nM | CS(=O)(=O)c1cccc(C(=O)/N=c2\[nH]c3cc(N4CCOCC4=O)ccc3n2[C@H]2CC[C@@H](O)CC2)c1 [Compound 54, cis-(E)-N-(1-(4-hydroxycyclohexyl)-5-(3-oxomorpholino)-1H-benzo[d]imidazol-2(3H)-ylidene)-3-(methylsulfonyl)benzamide]
≤ 100 nM | ≤ 100 nM | N#Cc1cccc(C(=O)/N=c2\[nH]c3cc(N4CCOCC4=O)ccc3n2[C@H]2CC[C@@H](O)CC2)c1 [Compound 55, cis-(E)-3-cyano-N-(1-(4-hydroxycyclohexyl)-5-(3-oxomorpholino)-1H-benzo[d]imidazol-2(3H)-ylidene)benzamide]
≤ 100 nM | ≤ 100 nM | O=C(/N=c1\[nH]c2cc(N3CCOCC3=O)ccc2n1[C@H]1CC[C@@H](O)CC1)c1cccc(C(F)F)c1 [Compound 56, cis-(E)-3-(difluoromethyl)-N-(1-(4-hydroxycyclohexyl)-5-(3-oxomorpholino)-1H-benzo[d]imidazol-2(3H)-ylidene)benzamide]
≤ 100 nM | ≤ 100 nM | O=C(/N=c1\[nH]c2cc(N3CCOCC3=O)ccc2n1[C@H]1CC[C@@H](O)CC1)c1cccc(C(F)(F)F)c1 [Compound 57, cis-(E)-N-(1-(4-hydroxycyclohexyl)-5-(3-oxomorpholino)-1H-benzo[d]imidazol-2(3H)-ylidene)-3-(trifluoromethyl)benzamide]
≤ 100 nM | ≤ 100 nM | N#Cc1cccc(C(=O)/N=c2\[nH]c3cc(N4CCCOC4=O)ccc3n2CCCO)c1 [Compound 58, (E)-3-cyano-N-(1-(3-hydroxypropyl)-5-(2-oxo-1,3-oxazinan-3-yl)-1H-benzo[d]imidazol-2(3H)-ylidene)benzamide]
